Experimental data published in PubChem BioAssay (NCI).
Values joined by “and” are separate entries in the source; they are usually repeats but may differ in a detail not shown here. Equal entries are not always repeated.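 Values below derive from 48-hour exposures of cells grown in 96-well plates, with endpoints linearly interpolated between the two concentrations bracketing the appropriate inhibition level. GI50 = concentration required for 50% inhibition of growth. TGI marks complete inhibition of growth.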

Legend:
Assay in all cases: NCI-60 cell line screen, 48 h
[1] = tested on: T-47D breast
[2] = tested on: HS 578T breast
[3] = tested on: BT-549 breast
[4] = tested on: SF-539 CNS
[5] = tested on: CAKI-1 renal
[6] = tested on: MDA-MB-231 breast
[7] = tested on: NCI/ADR-RES ovarian
[8] = tested on: SNB-78 CNS
[9] = tested on: DLD-1 colon
[10] = tested on: DMS 114 small cell lung

SMILES: O=C(Nc1ccc(I)cc1F)c1cc(Cl)ccc1O
- GI50 [1]: 0.294 µM
- TGI [1]: 2.57 µM
- GI50 [2]: 0.325 µM
- TGI [2]: 3.19 µM
- GI50 [3]: 0.372 µM
- TGI [3]: 1.73 µM
- GI50 [4]: 0.409 µM
- TGI [4]: 3.89 µM
- GI50 [5]: 0.305 µM
- TGI [5]: 2.34 µM
- GI50 [6]: 0.388 µM
- TGI [6]: 4.56 µM
- GI50 [7]: 0.4 µM
- TGI [7]: 3.54 µM

SMILES: O=C1c2nc3n(c2C(=O)c2c1nc1n2CCC1)CCC3
- TGI [8]: 31.1 µM
- TGI [9]: 18.2 µM
- TGI [4]: 8.77 µM and 13.5 µM
- TGI [5]: 23.9 µM
- TGI [10]: 5.29 µM

SMILES: C=CS(=O)(=O)CCN1CC1
- TGI [1]: > 10 µM
- TGI [2]: > 10 µM
- TGI [3]: > 10 µM
- TGI [4]: > 10 µM
- TGI [5]: > 10 µM
- TGI [6]: > 10 µM
- TGI [7]: > 10 µM

SMILES: CO[C@H]1CC(c2ccc[nH]2)=N[C@]12O[C@@H](C)C[C@@H]1CCCCCCCc3ccc([nH]3)[C@H]12
- GI50 [1]: 0.732 µM
- TGI [1]: > 19.2 µM
- GI50 [2]: 0.888 µM
- TGI [2]: 7.11 µM
- GI50 [3]: 1.21 µM
- TGI [3]: 9.31 µM
- GI50 [4]: 1.01 µM
- TGI [4]: 9.26 µM
- GI50 [5]: 1.18 µM
- TGI [5]: 11.3 µM
- GI50 [6]: 0.853 µM
- TGI [6]: 5.23 µM
- GI50 [7]: 1.1 µM
- TGI [7]: 9.9 µM

SMILES: COC(=O)CCC(=O)NC1C2CC3CC(C2)CC1C3 (stereo unspecified)
- TGI [9]: > 100 µM
- TGI [4]: > 100 µM
- TGI [5]: > 100 µM
- TGI [10]: > 100 µM

SMILES: COc1cc(/C=C/C(=O)c2cccnc2Nc2ccc(F)cc2)cc(OC)c1OC
- GI50 [1]: 3.96 µM
- TGI [1]: 25 µM
- GI50 [2]: 3.68 µM
- TGI [2]: 95.2 µM
- GI50 [3]: 2.7 µM
- TGI [3]: 6.72 µM
- GI50 [4]: 2.85 µM
- TGI [4]: 7.29 µM
- GI50 [5]: 3.68 µM
- TGI [5]: 39.5 µM
- GI50 [6]: 3.07 µM
- TGI [6]: 11.8 µM
- GI50 [7]: 2.37 µM
- TGI [7]: 8.14 µM

SMILES: C=C1[C@@H]([C@@]2(C)C=CC(=O)C(C)(C)[C@@H]2CC(=O)OC)CC[C@@]2(C)C(c3ccoc3)OC(=O)[C@H]3O[C@]132 (stereo partly specified)
- TGI [1]: > 100 µM
- TGI [2]: > 100 µM
- TGI [3]: > 100 µM
- TGI [4]: > 100 µM
- TGI [5]: > 100 µM
- TGI [6]: > 100 µM
- TGI [7]: > 100 µM

SMILES: Cc1ncc([N+](=O)[O-])n1CCNC(=O)Cn1c([N+](=O)[O-])cnc1C
- TGI [1]: > 100 µM
- TGI [2]: > 100 µM
- TGI [3]: > 100 µM
- TGI [4]: > 100 µM
- TGI [5]: > 100 µM
- TGI [6]: > 100 µM
- TGI [7]: > 100 µM

SMILES: COc1cc(Cl)cc(-c2nn(-c3cccc(NC(=O)Nc4ccc(Cl)c(C(F)(F)F)c4)c3)cc2-c2ccncc2)c1
- GI50 [1]: 1.25 µM
- TGI [1]: 8.02 µM
- GI50 [2]: 4.29 µM
- TGI [2]: 67.7 µM
- GI50 [3]: 2.38 µM
- TGI [3]: 6.66 µM
- GI50 [4]: 1.5 µM
- TGI [4]: 3.35 µM
- GI50 [5]: 0.816 µM
- TGI [5]: 9.43 µM
- GI50 [6]: 1.44 µM
- TGI [6]: 3.74 µM
- GI50 [7]: 1.77 µM
- TGI [7]: 11.6 µM

SMILES: O=C1C=CC(O)C2C1CC13SSC4(CC5C(=O)C=CC(O)C5N4C1=O)C(=O)N23 (stereo unspecified)
- TGI [1]: 2.53 µM
- TGI [2]: 2.26 µM
- TGI [3]: 3.65 µM
- TGI [4]: 0.505 µM
- TGI [5]: 0.957 µM
- TGI [6]: 0.947 µM
- TGI [7]: 0.093 µM

SMILES: CC(=O)C1=CCC2c3[nH]c4ccccc4c3CCN2C1 (stereo unspecified)
- TGI [8]: > 100 µM
- TGI [9]: > 100 µM
- TGI [4]: > 100 µM
